In patent publication US20240209028A1, “CNP COMPOUNDS” (priority 2022, published 2024):
Starred links: 1 amine or outer side, 2 acyl side, 3 side chain; linkers in the order of their positions; H or OH if unused. Positions of bridges follow the written chain, without caps; N, C: chain ends. Residues, ends and D or L forms follow the SMILES beside them. *: point of attachment. C18 diacid = O=C(O)CCCCCCCCCCCCCCCCC(=O)*; γGlu = O=C(O)[C@H](CCC(=O)[*:2])N[*:1]; AEEA = NCCOCCOCC(=O)O

Each compound was assayed against T1, human natriuretic peptide receptor 2 (hNPR2) (Homo sapiens, UniProt P20594) (assay: In vitro hNPR2 activity assay (cGMP GloSensor reporter, HEK293)). Conditions: 0% HSA; HEK293-hNPR2/GloSensor cells.
T1 construct: expressed in transfected cells; host or cells: HEK293 (ATCC CRL-1573), clone 35, co-transfected with pGloSensor-42F
T1 sequence (P20594 23-1047): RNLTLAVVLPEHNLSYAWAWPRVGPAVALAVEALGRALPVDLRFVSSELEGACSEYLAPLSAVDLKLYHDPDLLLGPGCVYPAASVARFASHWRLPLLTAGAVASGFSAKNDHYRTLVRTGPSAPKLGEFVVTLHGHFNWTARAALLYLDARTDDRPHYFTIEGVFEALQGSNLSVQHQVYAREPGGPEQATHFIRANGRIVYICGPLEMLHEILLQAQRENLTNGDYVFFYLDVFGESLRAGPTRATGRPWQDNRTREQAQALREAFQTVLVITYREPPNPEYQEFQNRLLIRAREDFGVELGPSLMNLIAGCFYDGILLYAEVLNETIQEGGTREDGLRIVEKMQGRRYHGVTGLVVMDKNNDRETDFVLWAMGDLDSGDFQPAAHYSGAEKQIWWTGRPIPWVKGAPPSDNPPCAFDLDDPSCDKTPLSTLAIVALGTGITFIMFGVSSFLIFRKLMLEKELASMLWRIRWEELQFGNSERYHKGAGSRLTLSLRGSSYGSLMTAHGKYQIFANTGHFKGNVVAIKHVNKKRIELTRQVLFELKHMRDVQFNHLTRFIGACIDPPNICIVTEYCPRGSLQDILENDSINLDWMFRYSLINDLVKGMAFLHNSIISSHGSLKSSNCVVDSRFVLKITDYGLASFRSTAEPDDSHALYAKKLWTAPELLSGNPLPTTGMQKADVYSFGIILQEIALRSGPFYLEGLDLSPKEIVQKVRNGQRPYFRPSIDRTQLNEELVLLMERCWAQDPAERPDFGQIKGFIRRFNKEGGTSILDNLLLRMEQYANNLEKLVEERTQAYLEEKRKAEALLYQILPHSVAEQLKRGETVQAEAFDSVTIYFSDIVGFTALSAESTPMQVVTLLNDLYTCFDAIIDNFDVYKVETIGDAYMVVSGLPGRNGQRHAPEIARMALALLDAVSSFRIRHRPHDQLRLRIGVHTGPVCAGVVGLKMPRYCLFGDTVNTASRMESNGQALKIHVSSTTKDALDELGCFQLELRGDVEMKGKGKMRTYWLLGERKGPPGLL
Assay type: cell-based
Method in brief: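 Potency is the EC50 from a four-parameter logistic fit, also expressed relative to the in-plate CNP22 control (×100), with at least two replicates. Compounds (ten concentrations, […], HSA-free diluent with 1% OVA, 0.01% Tween20) were incubated 30 min at 37 °C on HEK293 cells co-expressing hNPR2 and a GloSensor cGMP luciferase. Luminescence detected with Bright-Glo.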

EC50 [nM] | Compound
2.53 | CC[C@H](C)[C@@H]1NC(=O)[C@H](CCCNC(=N)N)NC(=O)[C@H](CC(=O)O)NC(=O)[C@H](CC(C)C)NC(=O)[C@H](CCCCN)NC(=O)[C@H](CC(C)C)NC(=O)CNC(=O)[C@H](Cc2ccccc2)NC(=O)[C@@H](NC(=O)CNC(=O)[C@H](CCCCN)NC(=O)[C@H](CO)NC(=O)[C@H](CC(C)C)NC(=O)CNC(=O)[C@H](CCCCN)NC(=O)[C@H](CCCCN)NC(=O)[C@H](CCC(N)=O)NC(=O)[C@H](C)NC(=O)CNC(=O)[C@H](Cc2c[nH]cn2)NC(=O)[C@H](CCC(=O)O)NC(=O)COCCOCCNC(=O)COCCOCCNC(=O)COCCOCCNC(=O)CC[C@H](NC(=O)CC[C@H](NC(=O)CCCCCCCCCCCCCCCCC(=O)O)C(=O)O)C(=O)O)CSSC[C@@H](C(=O)O)NC(=O)CNC(=O)[C@H](CC(C)C)NC(=O)CNC(=O)[C@H](CO)NC(=O)[C@H](CC(C)C)NC(=O)[C@H](CO)NC(=O)CNC1=O [compound 1357]

Same assay, conditions: potency relative to CNP22 (0065)

Compound | hNPR2 0% HSA. [EC50% rel CNP] [%]
CC[C@H](C)[C@@H]1NC(=O)[C@H](CCCNC(=N)N)NC(=O)[C@H](CC(=O)O)NC(=O)[C@H](CC(C)C)NC(=O)[C@@H]2CCCN2C(=O)[C@H](CC(C)C)NC(=O)CNC(=O)[C@H](Cc2ccccc2)NC(=O)[C@@H](NC(=O)CNC(=O)[C@H](Cc2c[nH]cn2)NC(=O)[C@H](CO)NC(=O)[C@H](CC(C)C)NC(=O)CNC(=O)[C@H](CCCCN)NC(=O)[C@H](CCCCN)NC(=O)[C@H](CCC(N)=O)NC(=O)[C@H](C)NC(=O)CNC(=O)COCCOCCNC(=O)COCCOCCNC(=O)CC[C@H](NC(=O)CCCCCCCCCCCCCCCCC(=O)O)C(=O)O)CSSC[C@@H](C(=O)O)NC(=O)CNC(=O)[C@H](CC(C)C)NC(=O)CNC(=O)[C@H](CO)NC(=O)[C@H](CC(C)C)NC(=O)[C@H](CO)NC(=O)CNC1=O [compound 1347] ({C18 diacid-γGlu-AEEA-AEEA}-GAQKKGLSHGCFGLPLDRIGSLSGLGC-OH; disulfide 11-27; C-terminus assumed) | 15.4
CC[C@H](C)[C@@H]1NC(=O)[C@H](CCCNC(=N)N)NC(=O)[C@H](CC(=O)O)NC(=O)[C@H](CC(C)C)NC(=O)[C@@H]2CCCN2C(=O)[C@H](CC(C)C)NC(=O)CNC(=O)[C@H](Cc2ccccc2)NC(=O)[C@@H](NC(=O)CNC(=O)[C@H](CO)NC(=O)[C@H](Cc2c[nH]cn2)NC(=O)[C@H](CC(C)C)NC(=O)CNC(=O)[C@H](CCCCN)NC(=O)[C@H](CCCCN)NC(=O)[C@H](CCC(N)=O)NC(=O)[C@H](C)NC(=O)CNC(=O)COCCOCCNC(=O)COCCOCCNC(=O)CC[C@H](NC(=O)CCCCCCCCCCCCCCCCC(=O)O)C(=O)O)CSSC[C@@H](C(=O)O)NC(=O)CNC(=O)[C@H](CC(C)C)NC(=O)CNC(=O)[C@H](CO)NC(=O)[C@H](CC(C)C)NC(=O)[C@H](CO)NC(=O)CNC1=O [compound 1348] ({C18 diacid-γGlu-AEEA-AEEA}-GAQKKGLHSGCFGLPLDRIGSLSGLGC-OH; disulfide 11-27) | 31.4
CC[C@H](C)[C@@H]1NC(=O)[C@H](CCCNC(=N)N)NC(=O)[C@H](CC(=O)O)NC(=O)[C@H](CC(C)C)NC(=O)[C@@H]2CCCN2C(=O)[C@H](CC(C)C)NC(=O)CNC(=O)[C@H](Cc2ccccc2)NC(=O)[C@@H](NC(=O)CNC(=O)[C@H](CO)NC(=O)[C@H](CO)NC(=O)[C@H](CC(C)C)NC(=O)CNC(=O)[C@@H](NC(=O)[C@H](Cc2c[nH]cn2)NC(=O)[C@H](CCC(N)=O)NC(=O)[C@H](C)NC(=O)CNC(=O)[C@H](Cc2c[nH]cn2)NC(=O)[C@H](Cc2ccc(O)cc2)NC(=O)[C@H](CCCCN)NC(=O)[C@H](CCCNC(=N)N)NC(=O)[C@H](C)NC(=O)COCCOCCNC(=O)COCCOCCNC(=O)CC[C@H](NC(=O)CCCCCCCCCCCCCCCCC(=O)O)C(=O)O)[C@@H](C)O)CSSC[C@@H](C(=O)O)NC(=O)CNC(=O)[C@H](CC(C)C)NC(=O)CNC(=O)[C@H](CO)NC(=O)[C@H](CC(C)C)NC(=O)[C@H](CO)NC(=O)CNC1=O [compound 1350] ({C18 diacid-γGlu-AEEA-AEEA}-ARKYHGAQHTGLSSGCFGLPLDRIGSLSGLGC-OH; disulfide 16-32) | 41.0
CC[C@H](C)[C@@H]1NC(=O)[C@H](CCCNC(=N)N)NC(=O)[C@H](CC(=O)O)NC(=O)[C@H](CC(C)C)NC(=O)[C@@H]2CCCN2C(=O)[C@H](CC(C)C)NC(=O)CNC(=O)[C@H](Cc2ccccc2)NC(=O)[C@@H](NC(=O)CNC(=O)[C@H](CCCCN)NC(=O)[C@H](CO)NC(=O)[C@H](CC(C)C)NC(=O)CNC(=O)[C@H](CCCCN)NC(=O)[C@H](CCCCN)NC(=O)[C@H](CCC(N)=O)NC(=O)[C@H](C)NC(=O)CNC(=O)[C@H](Cc2c[nH]cn2)NC(=O)[C@H](CCC(=O)O)NC(=O)COCCOCCNC(=O)COCCOCCNC(=O)COCCOCCNC(=O)CC[C@H](NC(=O)CCCCCCCCCCCCCCCCC(=O)O)C(=O)O)CSSC[C@@H](C(=O)O)NC(=O)CNC(=O)[C@H](CC(C)C)NC(=O)CNC(=O)[C@H](CO)NC(=O)[C@H](CC(C)C)NC(=O)[C@H](CO)NC(=O)CNC1=O [compound 1353] ({C18 diacid-γGlu-AEEA-AEEA-AEEA}-EHGAQKKGLSKGCFGLPLDRIGSLSGLGC-OH; disulfide 13-29; C-terminus assumed) | 9.0
CC[C@H](C)[C@@H]1NC(=O)[C@H](CCCNC(=N)N)NC(=O)[C@H](CC(=O)O)NC(=O)[C@H](CC(C)C)NC(=O)[C@@H]2CCCN2C(=O)[C@H](CC(C)C)NC(=O)CNC(=O)[C@H](Cc2ccccc2)NC(=O)[C@@H](NC(=O)CNC(=O)[C@H](CO)NC(=O)[C@H](CO)NC(=O)[C@H](CC(C)C)NC(=O)CNC(=O)[C@H](CCCCN)NC(=O)[C@H](CCCCN)NC(=O)[C@H](CCC(N)=O)NC(=O)[C@H](C)NC(=O)CNC(=O)[C@H](CCCCN)NC(=O)[C@H](Cc2ccc(O)cc2)NC(=O)COCCOCCNC(=O)COCCOCCNC(=O)COCCOCCNC(=O)CC[C@H](NC(=O)CCCCCCCCCCCCCCCCC(=O)O)C(=O)O)CSSC[C@@H](C(=O)O)NC(=O)CNC(=O)[C@H](CC(C)C)NC(=O)CNC(=O)[C@H](CO)NC(=O)[C@H](CC(C)C)NC(=O)[C@H](CO)NC(=O)CNC1=O [compound 1355] ({C18 diacid-γGlu-AEEA-AEEA-AEEA}-YKGAQKKGLSSGCFGLPLDRIGSLSGLGC-OH; disulfide 13-29) | 28.2
CC[C@H](C)[C@@H]1NC(=O)[C@H](CCCNC(=N)N)NC(=O)[C@H](CC(=O)O)NC(=O)[C@H](CC(C)C)NC(=O)[C@H](CCCCN)NC(=O)[C@H](CC(C)C)NC(=O)CNC(=O)[C@H](Cc2ccccc2)NC(=O)[C@@H](NC(=O)CNC(=O)[C@H](CCCCN)NC(=O)[C@H](CO)NC(=O)[C@H](CC(C)C)NC(=O)CNC(=O)[C@H](CCCCN)NC(=O)[C@H](CCCCN)NC(=O)[C@H](CCC(N)=O)NC(=O)[C@H](C)NC(=O)CNC(=O)[C@H](Cc2c[nH]cn2)NC(=O)[C@H](CCC(=O)O)NC(=O)COCCOCCNC(=O)COCCOCCNC(=O)COCCOCCNC(=O)CC[C@H](NC(=O)CC[C@H](NC(=O)CCCCCCCCCCCCCCCCC(=O)O)C(=O)O)C(=O)O)CSSC[C@@H](C(=O)O)NC(=O)CNC(=O)[C@H](CC(C)C)NC(=O)CNC(=O)[C@H](CO)NC(=O)[C@H](CC(C)C)NC(=O)[C@H](CO)NC(=O)CNC1=O [compound 1357] | 4.3
CC[C@H](C)[C@@H]1NC(=O)[C@H](CCCNC(=N)N)NC(=O)[C@H](CC(=O)O)NC(=O)[C@H](CC(C)C)NC(=O)[C@@H]2CCCN2C(=O)[C@H](CC(C)C)NC(=O)CNC(=O)[C@H](Cc2ccccc2)NC(=O)[C@@H](NC(=O)CNC(=O)[C@H](CO)NC(=O)[C@H](CO)NC(=O)[C@@H](NC(=O)CNC(=O)[C@@H](NC(=O)[C@H](CCCCN)NC(=O)[C@H](CCC(N)=O)NC(=O)[C@H](C)NC(=O)CNC(=O)[C@H](Cc2c[nH]cn2)NC(=O)[C@H](CCC(=O)O)NC(=O)[C@H](CCCCN)NC(=O)[C@H](CCCNC(=N)N)NC(=O)[C@H](C)NC(=O)COCCOCCNC(=O)COCCOCCNC(=O)CC[C@H](NC(=O)CCCCCCCCCCCCCCCCC(=O)O)C(=O)O)[C@@H](C)O)C(C)C)CSSC[C@@H](C(=O)O)NC(=O)CNC(=O)[C@H](CC(C)C)NC(=O)CNC(=O)[C@H](CO)NC(=O)[C@H](CC(C)C)NC(=O)[C@H](CO)NC(=O)CNC1=O [compound 1359] ({C18 diacid-γGlu-AEEA-AEEA}-ARKEHGAQKTGVSSGCFGLPLDRIGSLSGLGC-OH; disulfide 16-32; C-terminus assumed) | 28.2
CC[C@H](C)[C@@H]1NC(=O)[C@H](CCCNC(=N)N)NC(=O)[C@H](CC(=O)O)NC(=O)[C@H](CC(C)C)NC(=O)[C@@H]2CCCN2C(=O)[C@H](CC(C)C)NC(=O)CNC(=O)[C@H](Cc2ccccc2)NC(=O)[C@@H](NC(=O)CNC(=O)[C@H](CO)NC(=O)[C@H](CO)NC(=O)[C@@H](NC(=O)CNC(=O)[C@@H](NC(=O)[C@H](Cc2c[nH]cn2)NC(=O)[C@H](CCC(N)=O)NC(=O)[C@H](C)NC(=O)CNC(=O)[C@H](Cc2c[nH]cn2)NC(=O)[C@H](CCC(=O)O)NC(=O)[C@H](CCCCN)NC(=O)[C@H](CCCNC(=N)N)NC(=O)[C@H](C)NC(=O)COCCOCCNC(=O)COCCOCCNC(=O)CC[C@H](NC(=O)CCCCCCCCCCCCCCCCC(=O)O)C(=O)O)[C@@H](C)O)C(C)C)CSSC[C@@H](C(=O)O)NC(=O)CNC(=O)[C@H](CC(C)C)NC(=O)CNC(=O)[C@H](CO)NC(=O)[C@H](CC(C)C)NC(=O)[C@H](CO)NC(=O)CNC1=O [compound 1360] ({C18 diacid-γGlu-AEEA-AEEA}-ARKEHGAQHTGVSSGCFGLPLDRIGSLSGLGC-OH; disulfide 16-32) | 15.1
